“And” between values parts separate entries of the source, which are not always exact repeats. Equal entries are not always repeated.
Experiments:
CYP3A4 = test system: CYP3A4; parameters: method as in ref 6, 7 = [6]; 6 PubChem [Internet]. Bethesda (MD): National Library of Medicine (US), National Center for Biotechnology Information; 2004‐. PubChem Compound Summary for CID 51049968, Rimegepant. https://pubchem.ncb || [7]; PMID 32058712; doi:10.1021/acs.jmedchem.9b01810; 7 Dubowchik GM , Conway CM , Xin AW . Blocking the CGRP pathway for acute and preventive treatment of migraine: the evolution of success . J Med Chem . 2020; 63 ( 13 ): 6600 ‐ 6623 . 32058712 10.1021; details: in vitro, human liver microsomes and recombinant human CYP enzymes; cited from earlier work
[1] = cited from earlier work
[2] = parameters: method as in unpublished; details: rimegepant 75 mg with fluconazole 400 mg once daily for 8 consecutive days; ref unpublished; cited from earlier work
[3] = Part 1: pharmacokinetics of rimegepant 75 mg ODT alone or coadministered with cyclosporine 200 mg, 2-way crossover
Description: This phase 1, open‐label, randomized, single‐dose, 2‐way crossover, 2‐part, drug‐drug interaction study was conducted at a single center (Syneos Health, Québec, Canada). Subjects were screened within 28 days preceding administration of study medication. In part 1, fasted subjects were randomly assigned to a single dose of rimegepant 75 mg ODT or a single dose of rimegepant 75 mg ODT coadministered with cyclosporine 200 mg (2 × 100‐mg capsules). […] Following the completion of part 1, an interim PK analysis and review of data were performed. Part 2 was to be conducted only if the rimegepant AUC from time 0 to infinity (AUC0‐inf) ratio of geometric means in part 1 was increased by >50% when coadministered with cyclosporine. In part 2, fasted subjects were randomly assigned to a single dose of rimegepant 75 mg ODT or a single dose of rimegepant 75 mg ODT coadministered with quinidine 600 mg (2 × 300‐mg tablets).
In part 1, subjects received 1 of the following treatments under fasting conditions: 1 oral dose of rimegepant 75 mg ODT (Catalent Pharma Solutions, Swindon, UK) or 1 oral dose of rimegepant 75 mg ODT coadministered with cyclosporine 200 mg (Novartis Pharmaceuticals Canada Inc., Dorval, Quebec, Canada). In part 2, subjects received 1 of the following treatments under fasting conditions: 1 oral dose of rimegepant 75 mg ODT alone or 1 oral dose of rimegepant 75 mg ODT coadministered with quinidine 600 mg (Sandoz Inc., West Princeton, New Jersey). In parts 1 and 2, the interval between treatments could not exceed 2 minutes.
For each treatment, subjects were confined from the morning of day −1 until after the 24‐hour postdose blood draw on day 2. Subjects returned for all subsequent blood draws. No food was allowed from at least 10 hours before dosing until at least 4 hours after dosing. Meals were standardized and similar in composition between periods. Except for water given with cyclosporine and quinidine, no fluids were allowed from 1 hour before dosing until 1 hour after dosing. Water was provided ad libitum at all other times. […] When appropriate, subjects were accompanied by a staff member while walking.
In each period, 20 blood samples for PK assessment were collected at the following time points: before dosing; 5, 10, 20, 30, 40, and 50 minutes after dosing; and 1, 1.5, 2, 2.5, 3, 4, 5, 6, 8, 12, 24 (day 2), 48 (day 3), and 72 (day 4) hours after dosing. […] Plasma samples were assayed for rimegepant using ultra‐performance liquid chromatography with tandem mass spectrometry detection (LC‐MS/MS). The quantifiable range was 10 to 5000 ng/mL. Plasma samples containing human ethylenediaminetetraacetic acid (EDTA) K2 plasma as an anticoagulant were processed using automated protein precipitation before LC‐MS/MS analysis. The internal standard was rimegepant‐^13C2d4. The validation was performed using an API 5000 LC/MS/MS system with Analyst software, version 1.6.3 (SCIEX, Framingham, Massachusetts). The pump flow was isocratic, with a flow rate set at 0.600 mL/min. The column was an Acquity UPLC BEH C18, 50×2.1 mm, 1.7 μm (Waters Corporation, Framingham, Massachusetts), which was maintained at a temperature of 60°C and contained Milli‐Q type water/acetonitrile with ammonium acetate and acetic acid. The mass‐to‐charge ratios monitored for rimegepant were 535.4 for the precursor ion and 256.1 for the product ion, whereas for the internal standard, they were 541.4 for the precursor ion and 256 for the product ion. […] Incurred sample reanalysis was carried out on ≈10% of randomly selected samples.
The effects of cyclosporine (part 1) or quinidine (part 2) on the single‐dose PK of rimegepant were evaluated using general linear model procedures in SAS (SAS Institute, Cary, North Carolina).

[4] = Safety assessment (adverse events, ECG, vital signs, S-STS) in parts 1 and 2
Description: Safety was assessed using adverse events (AEs) that occurred from signing informed consent through 4 days after the last study drug administration, physical examination, body measurements, and the S‐STS. Safety was also assessed through vital signs (blood pressure, heart rate, respiratory rate, oral temperature), and electrocardiography. In part 2, cardiac telemetry was recorded continuously from ≈10 hours before dosing until 6 hours after dosing in each period (8 hours after dosing in subjects receiving quinidine with an increased QT interval at the 6‐hour assessment).
Safety laboratory assessments included a QuantiFERON‐TB test (Hilden, Germany); pregnancy tests (urine and serum); drug, alcohol, and cotinine screen; hematology; biochemistry; coagulation (in case of abnormal liver function tests); serology; and urinalysis.
Safety data were summarized but not subjected to inferential analysis.

BCRP = test system: BCRP; parameters: method as in ref 7 = [7]; PMID 32058712; doi:10.1021/acs.jmedchem.9b01810; 7 Dubowchik GM , Conway CM , Xin AW . Blocking the CGRP pathway for acute and preventive treatment of migraine: the evolution of success . J Med Chem . 2020; 63 ( 13 ): 6600 ‐ 6623 . 32058712 10.1021; details: in vitro; cited from earlier work
[5] = test system: organic anion transporting polypeptide 1B1; parameters: method as in ref 7 = [7]; PMID 32058712; doi:10.1021/acs.jmedchem.9b01810; 7 Dubowchik GM , Conway CM , Xin AW . Blocking the CGRP pathway for acute and preventive treatment of migraine: the evolution of success . J Med Chem . 2020; 63 ( 13 ): 6600 ‐ 6623 . 32058712 10.1021; details: in vitro; cited from earlier work
[6] = by cyclosporine 200 mg, single dose rimegepant 75 mg ODT, vs rimegepant alone
[7] = coadministration with cyclosporine 200 mg, rimegepant 75 mg
[8] = strong P‐gp inhibitors (cyclosporine, quinidine), parts 1 and 2
[9] = parts 1 and 2, rimegepant alone or coadministered

N[C@@H]1c2cccnc2[C@H](OC(=O)N2CCC(n3c(=O)[nH]c4ncccc43)CC2)CC[C@H]1c1cccc(F)c1F [Rimegepant]
metabolising enzyme (CYP3A4): primarily metabolized by CYP3A4 | absolute oral bioavailability ([1]; rimegepant ODT): ≈ 64% | median time to maximum plasma concentration (tmax) ([1]; sublingual administration of rimegepant ODT, fasting conditions): 1.5 h | change in rimegepant Cmax [2]: no change | increase in rimegepant AUC [2]: 80% | increase in rimegepant AUC0‐inf [3, 6]: 60.1% and 60% | increase in rimegepant Cmax [3, 6]: 41% | rimegepant AUC0‐inf geometric mean ratio (90% CI) versus rimegepant alone [3, 7]: 1.6 (1.49‐1.72) | rimegepant Cmax geometric mean ratio (90% CI) versus rimegepant alone [3, 7]: 1.41 (1.27‐1.57) | Tmax ([3]; human, in vivo, po, 75 mg): 2 h | Tmax ([3]; human, plasma, po): 2.5 h | Tmax ([3]; human, plasma, po, 75 mg): 1.99 h | half-life ([3]; human, plasma, po, 75 mg): 7.59 h | AUC ([3]; human, plasma, po, 75 mg, AUC0‐inf, arithmetic mean (percent coefficient of variation), part 1, rimegepant ODT 75 mg alone, single oral dose, N 15): 4270 ng·h/mL | AUC ([3]; human, plasma, po, 75 mg, AUC0‐inf, geometric least squares mean, part 1, rimegepant 75 mg ODT alone, single oral dose, fasted, N = 15): 4110 ng·h/mL | AUC ([3]; human, plasma, po, 75 mg, AUC0‐t, arithmetic mean (percent coefficient of variation), part 1, rimegepant ODT 75 mg alone, single oral dose, N 15): 4250 ng·h/mL | AUC ([3]; human, plasma, po, 75 mg, AUC0‐t, geometric least squares mean, part 1, rimegepant 75 mg ODT alone, single oral dose, fasted, N = 15): 4090 ng·h/mL | Cmax ([3]; human, plasma, po, 75 mg, arithmetic mean (percent coefficient of variation), part 1, rimegepant ODT 75 mg alone, single oral dose, N 15): 862 ng/mL | Cmax ([3]; human, plasma, po, 75 mg, geometric least squares mean, part 1, rimegepant 75 mg ODT alone, single oral dose, fasted, N = 15): 824 ng/mL | CL/F, arithmetic mean (percent coefficient of variation) ([3]; part 1, rimegepant ODT 75 mg alone, single oral dose, N 15): 19.26 (31.84) L/h | difference in geometric mean t1/2el between treatments ([3]; part 1, rimegepant with cyclosporine vs rimegepant alone): ≤ 5% | increase in rimegepant exposure by strong P‐gp inhibitors, lower bound [3, 8]: > 50% | increase in rimegepant exposure by strong P‐gp inhibitors, upper bound [3, 8]: < 2 fold | subjects discontinued due to AEs ([4]; part 2, rimegepant group: sinus tachycardia, rimegepant‐quinidine group: false‐positive SARS‐CoV‐2 test): 1 subjects | nausea (TEAE), number of subjects ([4]; parts 1 and 2): 1 subjects | serious AEs [4, 9]: No serious AEs were reported | severity of TEAEs [4, 9]: mild or moderate | tolerability ([4]; single oral dose rimegepant 75 mg ODT alone or coadministered with cyclosporine or quinidine, parts 1 and 2): well tolerated and safe | substrate of BCRP transporter (BCRP): substrate | substrate of organic anion transporting polypeptide 1B1 [5]: not a substrate
